From patent publication US4839374A, “4-((Bicyclic heterocyclyl)-methyl and -hetero)-piperidines” (Janssen Pharmaceutica, N.V., priority 1987, dated 1989)

tested on: compound 48/80-induced lethality; assay: Protection of rats from compound 48/80-induced lethality; format: in vivo, rats of an inbred Wistar strain; settings: Rattus norvegicus, 4 h, read-out: Compound 48/80 lethality test in rats ED50, s.c. or p.o. 1 h before compound 48/80 0.5 mg/kg i.v.; protection of 50% of animals, survival after 4 hours
Description: Protection of rats from compound 48/80-induced lethality
The protection from compound 48/80-induced lethal circulatory collapse appears to be a simple way of evaluating quantitatively the antihistaminic activity of test compounds. Male rats of an inbred Wistar strain, weighing 240-260 g were used in the experiment. After overnight starvation the rats were transferred to conditioned laboratories (temp.=21±1° C., relative humidity=65+5%). The rats were treated subcutaneously or orally with a test compound or with the solvent (NaCl solution, 0.9%). […] Survival after 4 hours is therefore considered to be a safe criterion of a protective effect of drug administration. The ED50 -values of the compounds of formula (I) are listed in the first column of tables 1 to 4. Said ED50 -values are the values in mg/kg body weight at which the tested compounds protect 50% of the tested animals against compound 48/80-induced lethality. The compounds of formula (I) and the pharmaceutically acceptable acid addition salts thereof are also potent serotonin-antagonists. The potency of the subject compounds as serotonin-antagonists is clearly evidenced by the results obtained in the following tests wherein the antagonistic activity of the subject compounds on the effect of serotonin is examined.

**Q.** COc1ccc(CCN2CCC(Cc3nc4cnccc4n3Cc3ccc(F)cc3)CC2)cc1 [Compound 202, 1-[(4-fluorophenyl)methyl]-2-[[1-[2-(4-methoxyphenyl)ethyl]-4-piperidinyl]-methyl]-1H-imidazo-[4,5-c]pyridine] was tested. Which ED50 did it give?
**A.** 0.08 mg/kg

**Q.** Fc1ccc(Cn2c(CC3CCN(CCNc4cccnn4)CC3)nc3ccccc32)cc1 [Compound 500, N-[2-[4-[[1-[(4-fluorophenyl)methyl]-1H-benzimidazol-2-yl]methyl]-1-piperidinyl]ethyl]-3-pyridazinamine] was tested. Which ED50 did it give?
**A.** 0.01 mg/kg

**Q.** How did the ED50 turn out when c1csc(Cn2c(CC3CCNCC3)nc3ccccc32)c1 [Compound 64, 2-(4-piperidinylmethyl)-1-(2-thienylmethyl)-1H-benzimidazole] was run?
**A.** 0.04 mg/kg

**Q.** For COc1ccc(CCN2CCC(Cc3nc4cccnc4n3Cc3ccccn3)CC2)cc1 [Compound 234], which ED50 is on record?
**A.** 0.02 mg/kg

**Q.** With Fc1ccc(Cn2c(CC3CCN(CCNc4cnccn4)CC3)nc3ccncc32)cc1 [Compound 373, N-[2-[4-[[3-[(4-fluorophenyl)methyl]-3H-imidazo[4,5-c]pyridin-2-yl]methyl]-1-piperidinyl]ethyl]-2-pyrazinamine] as the compound, how does the ED50 read?
**A.** 0.08 mg/kg

**Q.** How did the ED50 turn out when Cc1nc(CCN2CCC(Cc3nc4ccccc4n3Cc3ccc(F)cc3)CC2)cs1 [Compound 459, 1-[(4-fluorophenyl)methyl]-2-[[1-[2-(2-methyl-4-thiazolyl)ethyl]-4-piperidinyl]methyl]-1H-benzimidazole] was run?
**A.** 0.02 mg/kg

**Q.** Which ED50 does the source give for O=c1[nH]c2ccccc2c(=O)n1CCCCN1CCC(Cc2nc3ccccc3n2Cc2ccco2)CC1 [Compound 490, 3-[4-[4-[[1-(2-furanylmethyl)-1H-benzimidazol-2-yl]methyl]-1-piperidinyl]butyl]-2,4(1H,3H)-quinazolinedione] here?
**A.** 0.31 mg/kg

**Q.** Which ED50 does the source give for Fc1ccc(Cn2c(CC3CCNCC3)nc3ccncc32)cc1 [Compound 50, 3-[(4-fluorophenyl)methyl]-2-(4-piperidinylmethyl)-3H-imidazo[4,5-c]-pyridine] here?
**A.** 0.04 mg/kg

**Q.** How did the ED50 turn out when O=c1oc2ccccc2cc1CCN1CCC(Cc2nc3ccccc3n2Cc2cccs2)CC1 [Compound 259] was run?
**A.** 0.08 mg/kg

**Q.** Which ED50 does the source give for Fc1ccc(Cn2c(CC3CCN(CCSc4ccccc4)CC3)nc3ccccc32)cc1 [Compound 129] here?
**A.** 0.16 mg/kg

**Q.** COc1ccc(Cn2c(CC3CCN(CCO)CC3)nc3ccccc32)cc1 [Compound 110, 4-[[1-[(4-methoxyphenyl)methyl]-1H-benzimidazol-2-yl]methyl]-1-piperidineethanol] was tested. Which ED50 did it give?
**A.** 0.02 mg/kg

**Q.** Which ED50 does the source give for CC(C)N1CCC(Cc2nc3cccnc3n2Cc2ccc(F)cc2)CC1 [Compound 89] here?
**A.** 0.04 mg/kg

**Q.** How did the ED50 turn out when COc1ccc(CCN2CCC(Cc3nc4ccccc4n3CCc3ccccc3)CC2)cc1 [Compound 516, 2-[[1-[2-(4-methoxyphenyl)ethyl]-4-piperidinyl]methyl]-1-(2-phenylethyl)-1H-benzimidazole] was run?
**A.** 0.16 mg/kg

**Q.** Cc1nc2ccccn2c(=O)c1CCN1CCC(Cc2nc3cccnc3n2Cc2ccccn2)CC1 [Compound 256] was tested. Which ED50 did it give?
**A.** 0.08 mg/kg

**Q.** c1cnc(NCCN2CCC(Cc3nc4ccccc4n3Cc3cscn3)CC2)nc1 [Compound 338] was tested. Which ED50 did it give?
**A.** 0.02 mg/kg

**Q.** For S=C=NCCN1CCC(Cc2nc3cccnc3n2Cc2cccs2)CC1 [Compound 402], which ED50 is on record?
**A.** 0.04 mg/kg

**Q.** With CCn1nnnc1SCCN1CCC(Cc2nc3ccccc3n2Cc2ccc(F)cc2)CC1 [Compound 181] as the compound, how does the ED50 read?
**A.** 0.04 mg/kg

**Q.** How did the ED50 turn out when Nc1ccccc1C(=O)NCCN1CCC(Cc2nc3cccnc3n2Cc2ccco2)CC1 [Compound 473, 2-amino-N-[2-[4-[[3-(2-furanylmethyl)-3H-imidazo[4,5-b]pyridin-2-yl]methyl]-1-piperidinyl]ethyl]benzamide] was run?
**A.** 0.02 mg/kg

**Q.** Which ED50 does the source give for Fc1ccc(Cn2c(CC3CCN(CCSc4nc5cnccc5s4)CC3)nc3ccccc32)cc1 [Compound 388, 2-[[2-[4-[[1-[(4-fluorophenyl)methyl]-1H-benzimidazol-2-yl]methyl]-1-piperidinyl]ethyl]thio]thiazolo[4,5-c]pyridine] here?
**A.** 0.16 mg/kg

**Q.** For Nc1ccccc1C(=O)NCCCCN1CCC(Cc2nc3ccccc3n2Cc2ccco2)CC1 [Compound 472, 2-amino-N-[4-[4-[[1-(2-furanylmethyl)-1H-benzimidazol-2-yl]methyl]-1-piperidinyl]butyl]benzamide], which ED50 is on record?
**A.** 0.04 mg/kg

**Q.** Cc1nc2n(c(=O)c1CCN1CCC(Cc3nc4ccccc4n3Cc3ccco3)CC1)CCCS2 [Compound 166] was tested. Which ED50 did it give?
**A.** 0.04 mg/kg

**Q.** Cn1c(=O)n(CCN2CCC(Cc3nc4ccccc4n3Cc3ccco3)CC2)c(=O)c2ccccc21 [Compound 221] was tested. Which ED50 did it give?
**A.** 0.04 mg/kg

**Q.** How did the ED50 turn out when Nc1ccccc1C(=O)NCCN1CCC(Cc2nc3ccccc3n2Cc2ccco2)CC1 [Compound 466, 2-amino-N-[2-[4-[[1-(2-furanylmethyl)-1H-benzimidazol-2-yl]methyl]-1-piperidinyl]ethyl]benzamide] was run?
**A.** 0.02 mg/kg

**Q.** How did the ED50 turn out when Cc1nc2ccccn2c(=O)c1CCN1CCC(Cc2nc3cnccc3n2Cc2ccc(F)cc2)CC1 [Compound 274] was run?
**A.** 0.16 mg/kg

**Q.** For Fc1ccc(Cn2c(OC3CCNCC3)nc3ccccc32)cc1 [Compound 66, 1-[(4-fluorophenyl)methyl]-2-(4-piperidinyloxy)-1H-benzimidazole], which ED50 is on record?
**A.** 0.02 mg/kg

**Q.** With Fc1ccc(Cn2c(CC3CCN(CCNc4nc5ccccc5[nH]4)CC3)nc3ccccc32)cc1 [Compound 328, N-[2-[4-[[1-[(4-fluorophenyl)methyl]-1H-benzimidazol-2-yl]methyl]-1-piperidinyl]ethyl]1H-benzimidazol-2-amine] as the compound, how does the ED50 read?
**A.** 0.16 mg/kg

**Q.** For O=C(Cc1ccsc1)NCCN1CCC(Cc2nc3ccccc3n2Cc2ccc(F)cc2)CC1 [Compound 440, N-[2-[4-[[1-[(4-fluorophenyl)methyl]-1H-benzimidazol-2-yl]methyl]-1-piperidinyl]ethyl]-3-thiopheneacetamide], which ED50 is on record?
**A.** 0.02 mg/kg

**Q.** How did the ED50 turn out when Cc1nc2ccccn2c(=O)c1CCN1CCC(Cc2nc3ccccc3n2Cc2cscn2)CC1 [Compound 261] was run?
**A.** 0.08 mg/kg

**Q.** Which ED50 does the source give for c1coc(Cn2c(CC3CCN(CCNc4nc5cnccc5[nH]4)CC3)nc3cccnc32)c1 [Compound 417, N-[2-[4-[[3-(2-furanylmethyl)-3H-imidazo[4,5-b]pyridin-2-yl]methyl]-1-piperidinyl]ethyl]-1H-imidazo[4,5-c]pyridin-2-amine] here?
**A.** 0.04 mg/kg

**Q.** How did the ED50 turn out when Cc1ccc(Cn2c(CC3CCNCC3)nc3ccccc32)cc1 [Compound 42, 1-[(4-methylphenyl)methyl]-2-(4-piperidinylmethyl)-1H-benzimidazole] was run?
**A.** 0.02 mg/kg

**Q.** With c1csc(Cn2c(CC3CCN(CCNc4nccs4)CC3)nc3cccnc32)c1 [Compound 361] as the compound, how does the ED50 read?
**A.** 0.02 mg/kg

**Q.** For Fc1ccc(Cn2c(CC3CCN(CCc4cccs4)CC3)nc3cccnc32)cc1 [Compound 117], which ED50 is on record?
**A.** 0.01 mg/kg

**Q.** O=C(c1ccco1)N(CCN1CCC(Cc2nc3ccccc3n2Cc2ccco2)CC1)c1ncccn1 [Compound 509, N-[2-[4-[[1-(2-furanylmethyl)-1H-benzimidazol-2-yl]methyl]-1-piperidinyl]-ethyl]-N-(2-pyrimidinyl)-2-furancarboxamide] was tested. Which ED50 did it give?
**A.** 0.02 mg/kg

**Q.** For CCNC(=O)NCCN1CCC(Cc2nc3cccnc3n2Cc2ccc(F)cc2)CC1 [Compound 429, N-ethyl-N'-[2-[4-[[3-[(4-fluorophenyl)methyl]-3H-imidazo[4,5-b]pyridin-2-yl]-methyl]-1-piperidinyl]ethyl]urea], which ED50 is on record?
**A.** 0.02 mg/kg

**Q.** Which ED50 does the source give for COc1ccc(Cn2c(CC3CCN(CC#N)CC3)nc3ccccc32)cc1 [Compound 293] here?
**A.** 0.08 mg/kg

**Q.** O=c1cc[nH]c(=O)n1CCN1CCC(Cc2nc3ccccc3n2Cc2ccco2)CC1 [Compound 175] was tested. Which ED50 did it give?
**A.** 0.02 mg/kg

**Q.** With Cc1ccc(Cn2c(CC3CCN(C)CC3)nc3ccccc32)cc1 [Compound 81, 1-[(4-methylphenyl)methyl]-2-[(1-methyl-4-piperidinyl)methyl]-1H-benzimidazole] as the compound, how does the ED50 read?
**A.** 0.08 mg/kg

**Q.** How did the ED50 turn out when CN1CCC(Oc2nc3ccccc3n2Cc2ccc(F)cc2)CC1 [Compound 85] was run?
**A.** 0.01 mg/kg

**Q.** For Cn1c(=O)c2c(ncn2CCN2CCC(Cc3nc4cccnc4n3Cc3ccco3)CC2)n(C)c1=O [Compound 176], which ED50 is on record?
**A.** 0.04 mg/kg

**Q.** For NC(=O)CN1CCC(Cc2nc3ccccc3n2Cc2ccc(F)cc2)CC1 [Compound 149, 4-[[1-[(4-fluorophenyl)methyl]-1H-benzimidazol-2-yl]methyl]-1-piperidineacetamide], which ED50 is on record?
**A.** 0.04 mg/kg

**Q.** How did the ED50 turn out when O=c1oc2ccccc2cc1CCN1CCC(Cc2nc3ccccc3n2Cc2ccc(F)cc2)CC1 [Compound 161] was run?
**A.** 0.04 mg/kg

**Q.** CN1CCC(Sc2nc3ccccc3n2Cc2ccc(F)cc2)CC1 [Compound 96] was tested. Which ED50 did it give?
**A.** 0.04 mg/kg

**Q.** With c1ccc(Cn2c(CC3CCNCC3)nc3ccccc32)cc1 [Compound 40, 1-(phenylmethyl)-2-(4-piperidinylmethyl)-1H-benzimidazole] as the compound, how does the ED50 read?
**A.** 0.08 mg/kg

**Q.** Which ED50 does the source give for Fc1ccc(Cn2c(CC3CCN(CCNc4ccc(Cl)nn4)CC3)nc3ccccc32)cc1 [Compound 378, 6-chloro-N-[2-[4-[[1-[(4-fluorophenyl)methyl]-1H-benzimidazol-2-yl]methyl]-1-piperidinyl]ethyl]-3-pyridazinamine] here?
**A.** 0.04 mg/kg

**Q.** Which ED50 does the source give for CC(C)N1CCC(Cc2nc3cnccc3n2Cc2ccc(F)cc2)CC1 [Compound 100] here?
**A.** 0.16 mg/kg

**Q.** Which ED50 does the source give for COc1ccc(CCN2CCC(Cc3nc4ccccc4n3Cc3ccc(C)o3)CC2)cc1 [Compound 266] here?
**A.** 0.04 mg/kg

same assay, conditions: s.c. or p.o. 1 h before compound 48/80 0.5 mg/kg i.v.; protection of 50% of animals, survival after 4 hours; 0.5 mg/kg, 240 min

**Q.** With Cc1nc2n(c(=O)c1CCN1CCC(Cc3nc4ccccc4n3Cc3ccco3)CC1)CCS2 [Compound 167] as the compound, how does the “Compound 48/80 lethality test in rats ED50” value read?
**A.** 0.01 mg/kg body weight
